Among the data in PubChem BioAssay (NCI) are GI50 and TGI values, retold here.

Test systems include T-47D breast; HCT-15 colon; SNB-19 CNS; NCI-H460 lung; SF-268 CNS; M14 melanoma; HCC-2998 colon; NCI-H226 lung.
Assay in all cases: growth of human tumour cells (NCI), 48 h

“And” between values parts separate entries of the source, which are not always exact repeats. Identical values can stand only once.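 96-well plates; 48 h exposure; 5 concentrations. Endpoints by linear interpolation between flanking doses. Not reached: highest tested concentration assigned. GI50: concentration for 50% inhibition of growth. The concentration for full growth arrest is given as TGI.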

Take `COc1ccc(Oc2cc(NCCC(F)(F)F)c3ncc(-c4ccc(C(=O)NC5CC5)c(C)c4)n3n2)c(F)c1F`: the GI50 in the experiment on T-47D breast was 1900 nM; with HCT-15 colon, below 10 nM; with SNB-19 CNS, 5730 nM; with NCI-H460 lung, below 10 nM; in the experiment with SF-268 CNS it was 4980 nM; with M14 melanoma it was 339 nM. In addition, the GI50 with HCC-2998 colon was 12300 nM; with NCI-H226 lung it was 7340 nM. The TGI was above 92.7 µM in the experiment on T-47D breast; above 100 µM in the experiment on HCT-15 colon; above 72.4 µM with SNB-19 CNS; above 54 µM in the experiment with NCI-H460 lung; above 100 µM in the experiment on SF-268 CNS; above 46.1 µM in the experiment on M14 melanoma. The TGI in the experiment with HCC-2998 colon is above 100 µM; with NCI-H226 lung it was 68.8 µM.

Take `COC(=O)[C@@H](OC)[C@@H]1Cc2cc3cc(OC4CC(OC5CC(O)C(O)C(C)O5)C(O)C(C)O4)c(C)c(O)c3c(O)c2C(=O)[C@H]1OC1CC(OC2CC(OC3CC(C)(O)C(O)C(C)O3)C(O)C(C)O2)C(O)C(C)O1` (some centres undefined): the GI50 with T-47D breast is 42.1 nM; in the experiment with HCT-15 colon, 57.5 nM; in the experiment on SNB-19 CNS, 44.9 nM; in the experiment with NCI-H460 lung, 42.9 nM; in the experiment with SF-268 CNS, 45.5 nM; in the experiment with M14 melanoma, 38.2 nM. Further, the values for the GI50 in the experiment with HCC-2998 colon and in the experiment with NCI-H226 lung were 36.5 nM and 38.4 nM, respectively. Moreover, the TGI with T-47D breast is above 16.5 µM; with HCT-15 colon it was above 16.5 µM; in the experiment with SNB-19 CNS, above 8.89 µM; in the experiment with NCI-H460 lung, above 16.5 µM; in the experiment on SF-268 CNS, above 7.49 µM; with M14 melanoma it was 0.157 µM. Moreover, the TGI was 0.252 µM in the experiment with HCC-2998 colon and 0.125 µM in the experiment on NCI-H226 lung.

`CC(=O)c1cccc(NC(=O)c2ccc(NC3=C(Cl)C(=O)N(Cc4ccccc4)C3=O)cc2)c1`: the GI50 in the experiment on T-47D breast is 25100 nM; with HCT-15 colon, 16800 nM; in the experiment with SNB-19 CNS it was 32800 nM; with NCI-H460 lung it was 22100 nM; in the experiment with SF-268 CNS, 22200 nM; in the experiment with M14 melanoma it was 17100 nM. In addition, the results for the GI50 in the experiment with HCC-2998 colon and in the experiment with NCI-H226 lung were 23100 nM and 9900 nM, respectively. Besides, the TGI is above 100 µM in the experiment with T-47D breast; 44.5 µM in the experiment on HCT-15 colon; above 100 µM in the experiment with SNB-19 CNS; above 100 µM with NCI-H460 lung; 98.9 µM in the experiment on SF-268 CNS; 33.3 µM in the experiment with M14 melanoma. The figures for the TGI in the experiment on HCC-2998 colon and in the experiment on NCI-H226 lung were 41 µM and 28.1 µM, respectively.

`Cc1ncc(-c2ccnc(Nc3ccc(S(C)(=O)=O)cc3)n2)n1C(C)C`: the GI50 with T-47D breast is 1380 nM; in the experiment with HCT-15 colon, 1410 nM; in the experiment on SNB-19 CNS, 2230 nM; in the experiment with NCI-H460 lung it was 931 nM; in the experiment with SF-268 CNS it was 1670 nM; in the experiment on M14 melanoma, 1600 nM. Also, the GI50 with HCC-2998 colon is 1350 nM; in the experiment on NCI-H226 lung it was 902 nM. The TGI is above 8.75 µM in the experiment on T-47D breast; above 8.6 µM with HCT-15 colon; above 10 µM in the experiment with SNB-19 CNS; above 5.33 µM in the experiment on NCI-H460 lung; 6.62 µM in the experiment on SF-268 CNS; 5.04 µM in the experiment on M14 melanoma. Besides, the TGI is 5.59 µM in the experiment with HCC-2998 colon and above 8.47 µM in the experiment on NCI-H226 lung.

For `CN(C)c1ccc(C(=C2C=CC(=[N+](C)C)C=C2)c2ccccc2Cl)cc1`, the GI50 was 188 nM in the experiment on T-47D breast; 717 nM with HCT-15 colon; 348 nM in the experiment on SNB-19 CNS; 245 nM with NCI-H460 lung; 379 nM with SF-268 CNS; 274 nM with M14 melanoma. The GI50 in the experiment with HCC-2998 colon is 354 nM; in the experiment with NCI-H226 lung, 430 nM. The TGI is 0.901 µM in the experiment on T-47D breast; 4.96 µM with HCT-15 colon; 1.29 µM in the experiment on SNB-19 CNS; 0.804 µM in the experiment with NCI-H460 lung; 1.41 µM in the experiment on SF-268 CNS; 0.942 µM with M14 melanoma. In addition, the TGI with HCC-2998 colon amounted to 1.28 µM; in the experiment with NCI-H226 lung, 2 µM.

For `N#C/C(=C\c1cccc2cnccc12)N1N=NC2C=CC=CC21` (centres undefined), the GI50 in the experiment on T-47D breast is 582 nM; with HCT-15 colon it was 1740 nM; in the experiment on SNB-19 CNS it was 6290 nM; with NCI-H460 lung it was 3980 nM; in the experiment on SF-268 CNS it was 3060 nM; in the experiment on M14 melanoma, 7710 nM. The GI50 was 4320 nM in the experiment with HCC-2998 colon and 3950 nM with NCI-H226 lung. Moreover, the TGI in the experiment with T-47D breast was 6.4 µM; in the experiment on HCT-15 colon, above 100 µM; with SNB-19 CNS, above 100 µM; in the experiment with NCI-H460 lung, 32.7 µM; in the experiment on SF-268 CNS it was above 100 µM; with M14 melanoma, above 100 µM. The TGI in the experiment with HCC-2998 colon and in the experiment on NCI-H226 lung was above 100 µM each time.

Turning to `Cc1cc2c(cc1C)[n+](Cc1ccc3ccccc3n1)cn2Cc1ccc2ccccc2n1`, the GI50 was 393 nM in the experiment with T-47D breast; 3040 nM in the experiment on HCT-15 colon; 910 nM with SNB-19 CNS; 630 nM with NCI-H460 lung; 1270 nM in the experiment with SF-268 CNS; 586 nM with M14 melanoma. In addition, the GI50 in the experiment on HCC-2998 colon is 1270 nM; in the experiment on NCI-H226 lung it was 1590 nM. The TGI in the experiment with T-47D breast came out at 2.93 µM; in the experiment on HCT-15 colon it was 11.4 µM; in the experiment on SNB-19 CNS it was 2.36 µM; with NCI-H460 lung, 2.21 µM; in the experiment on SF-268 CNS, 3.02 µM; with M14 melanoma it was 2.42 µM. The TGI was 2.73 µM in the experiment with HCC-2998 colon and 4.01 µM in the experiment on NCI-H226 lung.

As for `CC(=O)/C(=C\c1c(-c2ccccc2)[nH]c2ccccc12)S(=O)(=O)c1ccccc1`, the GI50 in the experiment on T-47D breast is 1260 nM; in the experiment with HCT-15 colon, 834 nM; in the experiment with SNB-19 CNS it was 4140 nM; with NCI-H460 lung, 1040 nM; with SF-268 CNS it was 3350 nM; with M14 melanoma, 513 nM. For the same molecule, the GI50 with HCC-2998 colon is 1380 nM; in the experiment on NCI-H226 lung, 1920 nM. The TGI was 7.03 µM in the experiment with T-47D breast; 3.21 µM with HCT-15 colon; 12.1 µM with SNB-19 CNS; 2.68 µM in the experiment on NCI-H460 lung; 31.1 µM with SF-268 CNS; 2.15 µM in the experiment on M14 melanoma. In addition, the figures for the TGI in the experiment with HCC-2998 colon and in the experiment on NCI-H226 lung were 2.78 µM and 5.21 µM, respectively.

Regarding `O=C(c1ccccc1O)c1[nH]c(Cl)c(Cl)c1-n1c(C(=O)c2ccccc2O)cc(Cl)c1Cl`, the GI50 was 360 nM and 460 nM in the experiment with T-47D breast; 316 nM and 298 nM with HCT-15 colon; 1490 nM and 917 nM with SNB-19 CNS; 456 nM and 427 nM in the experiment on NCI-H460 lung; 677 nM and 546 nM in the experiment with SF-268 CNS; 1460 nM and 1440 nM with M14 melanoma. For the same molecule, the GI50 in the experiment on HCC-2998 colon was 994 nM and 931 nM; in the experiment with NCI-H226 lung, 1630 nM and 706 nM. Moreover, the TGI in the experiment with T-47D breast was 3.34 µM and 11.2 µM; in the experiment with HCT-15 colon, 12.1 µM and 11.1 µM; in the experiment on SNB-19 CNS, 15.4 µM and 15.6 µM; in the experiment with NCI-H460 lung, 11.2 µM and 10.2 µM; in the experiment on SF-268 CNS, 13.4 µM and 14.6 µM; in the experiment with M14 melanoma it was 5.9 µM and 7.76 µM. Further, the TGI in the experiment on HCC-2998 colon is 12.7 µM and 11.6 µM; in the experiment with NCI-H226 lung, 14.9 µM and 5.97 µM.
